Values quoted from earlier work as cited in patent publication US20080095853A1, “Modified Release For Proton Pump Inhibitors” (priority 2004, published 2008).

Test system: gastric acid
Details: splitting a 40 mg dose into 20 mg bid

For `COc1ccc2nc([S@@+]([O-])Cc3ncc(C)c(OC)c3C)[nH]c2c1` [esomeprazole], the “nocturnal gastric acid suppression” value is given as “significantly improved”.
